Data taken from patent publication US8551958B2, “Galactosylated pro-drugs of non-steroidal anti-inflammatories with improved pharmacokinetic characteristics and reduced toxicity of the starting drug” (Stewart Italia Srl, priority 2008, dated 2013).
Entries after “also recorded” stand apart in the source; their conditions may differ.

Assays:
[1] = Chemical stability of the pro-drug (phosphate buffer pH 7.4; HCl 0.1 N pH 1), HPLC; type: physicochemical; conditions: in the dark
Description: For the stability study, the solutions of pro-drug were prepared by dissolving an aliquot of Ketogal in a phosphate buffer at pH 7.4, or else in a solution of HCl 0.1 N (pH 1), as regards chemical stability, or else in a plasma specimen, for enzymatic stability. The solutions were kept in the dark, at a temperature of 37° C., for 24 hours. After each hour an aliquot of specimen was taken. In the case of plasma, said aliquot was previously extracted with acetonitrile (1:2), “vortexed” and centrifuged at 3000 r.p.m. for 10 min. The supernatant was taken and used for analysis at HPLC with diode detector. The half-lives for chemical stability and enzymatic stability were calculated by quantizing, in time, the percentage of pro-drug that remained in solution. For the chromatographic separations, a 1090L HPLC (Hewlett-Packard, Palo Alto, USA) was used, coupled to a diode detector HP 1040A. A Phenomenex Luna C18 (250×4.6 mm, 5 μm) column was used. The wavelength used was 313 nm. The mobile phase was constituted by acetonitrile and an aqueous solution of phosphoric acid […] (pH 3) in the ratio of 68:32. The flow was 1 mL/min, with an injection volume of 20 μl. All the reagents and the solvents used were of analytical degree. The distilled and deionized water was purified by means of a Milli Q system (Millipore). The retention times of the compounds were: ketorolac: 6.7 min; Ketogal: 3.8 min. As internal standard tolmetin was used (9.3 min). The straight line of calibration for quantification of the compounds was constructed using standard solutions with concentrations of between 0.1 and 100 μg/ml. The linearity was obtained with a coefficient of regression (R^2) of approximately 0.998.
For the study of the stability, the solutions of pro-drug were prepared by dissolving an aliquot of Flugal in a phosphate buffer at pH 7.4, as regards chemical stability, or else in a plasma specimen, for enzymatic stability. The solutions were kept in the dark, at a temperature of 37° C., for 24 hours. After each hour an aliquot of specimen was taken. In the case of the plasma said amount was previously extracted with acetonitrile (1:2), “vortexed”, and centrifuged at 3000 r.p.m. for 10 min. The supernatant was taken and used for analysis at HPLC with diode detector. The half-lives for the chemical stability and enzymatic stability were calculated by quantizing, in time, the percentage of pro-drug that remained in solution. A 1090L HPLC (Hewlett-Packard, Palo Alto, USA) coupled to a diode detector HP 1040A was used for the chromatographic separations. The column used was a Supelcosil LC-18, 250×4.6 mm, particle size […]. The volume injected was […] and the flow of 1 mL/min. The mobile phase was constituted by a mixture of aqueous CH3CN/H3PO4 1 mM (pH 3) [32:68]. For the quantitative determination reading was made at 250 nm. The retention times of the various compounds involved in the analysis were: for Flugal 6 min and for flurbiprofen 11 min. All the reagents and the solvents used were of analytical degree. The distilled and deionized water was purified by means of a Milli Q system (Millipore). The straight line of calibration for the quantification of the compounds was constructed using standard solutions with concentrations of between 0.1 and 100 μg/ml. Linearity was obtained with a coefficient of regression (R^2) of approximately 0.998. From the results of said analysis (illustrated in Table 3) it emerges that the pro-drug Flugal has a good chemical stability and a good susceptibility to enzymatic hydrolysis.
Chemical stability was assessed also at pH 1.0 in a solution of HCl 0.1N as described.
For the stability study, the solutions of pro-drug were prepared by dissolving an aliquot of Okigal in a phosphate buffer at pH 7.4, or else in a solution of HCl 0.1 N (pH 1), as regards chemical stability, or else in a plasma specimen, for enzymatic stability. The solutions were kept in the dark, at a temperature of 37° C., for 24 hours. […]

[2] = test system: writhing induced by magnesium sulphate; test: Writhing induced by magnesium sulphate (visceral pain); type: in vivo, mouse; conditions: ketorolac 0.01 to 10 mg/kg, Ketogal in equimolar dose; 1 hour before magnesium sulphate 120 mg/kg
Description: In order to determine whether ketorolac and Ketogal are able to inhibit visceral pain, the effects of these compounds on “writhing” induced by magnesium sulphate were tested. Magnesium sulphate induces a reversible response when injected by intraperitoneal route in the mouse. The administration of 120 mg/kg of magnesium sulphate induces an average of 6±0.9 episodes of “writhing” in the mouse (n=6).

male Swiss mice = test: Ulcerogenicity studies, ketorolac and Ketogal (gastric lesions); type: in vivo; conditions: oral, Ketogal 16.3 mg/kg
Description: The gastric lesions were evaluated in male Swiss mice. To the fasted animals (16-18 h) were administered, by oral route, ketorolac (10 mg/kg), Ketogal (16.3 mg/kg), or the vehicle. After 4 hours, the mice were sacrificed and the stomach removed, cut along the major curvature, washed with physiological solution, and the mucous was examined for evaluation of the presence of petechias and/or gastric lesions. A “score” of 1 was assigned to the petechias, and a “score” based on the diameter (a “score” of 5 for lesions of a diameter of less than 1 mm; a “score” of 10 for lesions with a diameter of more than 1 mm) was, instead, assigned to the lesions.

[3] = Enzymatic stability in plasma, HPLC; type: in vitro ADME; conditions: plasma specimen, 37° C., in the dark; read-out: Plasma T½ (converted)
Description: For the stability study, the solutions of pro-drug were prepared by dissolving an aliquot of Ketogal in a phosphate buffer at pH 7.4, or else in a solution of HCl 0.1 N (pH 1), as regards chemical stability, or else in a plasma specimen, for enzymatic stability. The solutions were kept in the dark, at a temperature of 37° C., for 24 hours. After each hour an aliquot of specimen was taken. In the case of plasma, said aliquot was previously extracted with acetonitrile (1:2), “vortexed” and centrifuged at 3000 r.p.m. for 10 min. The supernatant was taken and used for analysis at HPLC with diode detector. The half-lives for chemical stability and enzymatic stability were calculated by quantizing, in time, the percentage of pro-drug that remained in solution. For the chromatographic separations, a 1090L HPLC (Hewlett-Packard, Palo Alto, USA) was used, coupled to a diode detector HP 1040A. A Phenomenex Luna C18 (250×4.6 mm, 5 μm) column was used. The wavelength used was 313 nm. The mobile phase was constituted by acetonitrile and an aqueous solution of phosphoric acid […] (pH 3) in the ratio of 68:32. The flow was 1 mL/min, with an injection volume of 20 μl. All the reagents and the solvents used were of analytical degree. The distilled and deionized water was purified by means of a Milli Q system (Millipore). […] The straight line of calibration for quantification of the compounds was constructed using standard solutions with concentrations of between 0.1 and 100 μg/ml. […]
For the study of the stability, the solutions of pro-drug were prepared by dissolving an aliquot of Flugal in a phosphate buffer at pH 7.4, as regards chemical stability, or else in a plasma specimen, for enzymatic stability. […] The half-lives for the chemical stability and enzymatic stability were calculated by quantizing, in time, the percentage of pro-drug that remained in solution. […] For the quantitative determination reading was made at 250 nm. […] The straight line of calibration for the quantification of the compounds was constructed using standard solutions with concentrations of between 0.1 and 100 μg/ml. […]

- pH 7.4 T½ ([1]; phosphate buffer at pH 7.4, 37° C.): >4 hours
- pH 1 T½ ([1]; solution of HCl 0.1 N (pH 1), 37° C.): 2.1 hours
- half-life [3]: 1.5 h
SMILES: O=C(c1ccccc1)c1ccc2n1CC[C@@H]2C(=O)OCC1O[C@H](O)C(O)C(O)[C@H]1O (mixture of isomers) [Ketogal, ketorolac-D-galactos-6′-yl ester]
- Inhibition of writhing induced by magnesium sulphate [2]: able to inhibit this response in a dose-dependent way
- Gastrolesive properties (in words) (male Swiss mice; equimolar to ketorolac 10 mg/kg): does not cause ulcers; also recorded: only a slight irritation of the gastric mucosa, with an almost total absence of ulcers
- Degree of ulcerogenicity (male Swiss mice; ketorolac 10.0 mg/kg, after 4 hours, score 1 petechias, 5 or 10 lesions): 1
- Number of ulcers (male Swiss mice; ketorolac 10.0 mg/kg, fasted mice, after 4 hours): 1 ± 0.4
